Source: ChEMBL document CHEMBL1157539, “Thousands of chemical starting points for antimalarial lead identification” (Nature, 2010)

Test system: Plasmodium falciparum
Experiment: GSK_TCMDC: Inhibition of Plasmodium falciparum 3D7 in whole erythrocytes, using parasite LDH activity as an index of growth.
Type: functional, organism-based
Settings: Plasmodium falciparum, 3D7

SMILES	XC50 [nM]
CC12CCC(=O)N1C(C(=O)Nc1cccc(C(=O)Nc3cccc(C(F)(F)F)c3)c1)CS2 (configuration not stated)	358
CC(=O)Nc1cccc(-c2cn(-c3ccc(OCc4cccc(F)c4)c(Cl)c3)c3ncncc23)c1	70.9
N#Cc1ccc(-c2ccc3nc(N4CCCN(C5CCC5)CC4)ccc3c2)cc1	1500
CCNC(=O)Nc1ccc(N(C)c2ccnc(Nc3ccc(CS(C)(=O)=O)cc3)n2)cc1	88.8
O=C(/C=C/c1ccc(Cl)c(Cl)c1)NCCCCCN1CCCN(C(=O)Nc2ccc(OC(F)F)cc2)CC1	833
Cc1nc(-c2ccc(-c3ccc(NC(=O)c4coc5ccc(N6CC(C)NC(C)C6)cc45)cc3)c(C)c2)no1 (configuration not stated)	925
NC(=O)N1CCN(Cc2ccc(Br)cc2)CC1	619
O=S(=O)(c1ccccc1OC(F)(F)F)C1CC2CCC(C1)N2S(=O)(=O)c1cccc(C(F)(F)F)c1 (configuration not stated)	665
COc1ccc(Cl)cc1C(=O)Nc1ccc(-c2nc3ccccc3[nH]2)cc1	774
Cc1c(CNCCN2CCCCC2)c(C(=O)O)c(C)n1Cc1ccc(Cl)cc1	416
Clc1ccc(OCc2ccccc2)c(-c2nc(-c3nc4ccc(Cl)cc4[nH]3)cs2)c1	670
COc1ccc2nccc([C@@H](O)CN3CCC(NCc4ccc5c(c4)N(C)C(=O)CO5)CC3)c2c1	745
CCC(C)c1ccc(O)c(NC(=O)c2cncc(Br)c2)c1 (configuration not stated)	804
COc1ccc(CCNCc2ccc3nc(N)c(C)cc3c2)cc1	992
COc1ccc(Cc2cnc3nc(N)nc(N)c3c2C)cc1	29.1
CC(C)(C)CNc1noc(-c2sccc2Br)n1	1120
COc1ccc(NC(=O)c2ccc(Br)c(C)c2)cc1N1CCN(CCCc2c[nH]c3ccccc23)CC1	382
CN(C)CCCOc1ccc(-c2nc(-c3ccc4c(c3)CCC4=NO)c(-c3ccncc3)[nH]2)cc1	832
Fc1cccc(COc2ccc(Nc3ncnc4sc(C#CCNC5CCC5)cc34)cc2Cl)c1	875
CN(C(=O)OCc1ccccc1)C1CCC(CCN2CCC3(CC2)C(=O)NCN3c2cccc(C(F)(F)F)c2)(c2ccccc2)CC1 (configuration not stated)	1180
COc1ccc(Nc2nc(NC3CCN(Cc4ccccc4)CC3)cc(-c3ccncc3)n2)cc1	992
O=c1ccc(-c2nc3cc(Cl)c(Cl)cc3n2Cc2ccc(Cl)cc2Cl)c[nH]1	1110
c1ccc2c(C3CCN(CCCCOc4ccc5c(c4)CCN(CC4CC4)CC5)CC3)c[nH]c2c1	982
CC1CCN(Cc2cccc(C(=O)NCc3ccc(F)c(-c4cccc(CN5CCN[C@@H](C)C5)c4)c3)c2)CC1	1460
COc1ccc(CN2C(=S)N(Cc3ccccc3)C(=O)C2CC(=O)Nc2ccccc2)cc1OC (configuration not stated)	844

SMILES	XC50 [nM]
CC(C)c1ccc2c(c1)C(=O)c1ccc(C(=O)O)cc1S2(=O)=O	472
CCOc1ncccc1CN1CCC(N2CCc3cc(NC(=O)c4ccco4)ccc32)C1 (configuration not stated)	758
OC1(CNCc2ccccc2)CCN(CCc2c[nH]c3ccc(F)cc23)CC1	710
CCN(CC)CCCC(C)Nc1ccnc2cc(C#N)ccc12 (configuration not stated)	139
CC(C)[C@H](NC(=O)c1ccc(O)c(-c2ccc(Cl)c(Cl)c2)c1)C(=O)NCCN1CCOCC1	911
Cc1cccc2nc(C3CCN(CC4CCN(C(=O)/C=C/c5ccc(Cl)c(Cl)c5)CC4)CC3)[nH]c12	485
CCOC(=O)c1cnc2c(OC)cc(OC)c(Cl)c2c1Nc1cccc(C)c1C	310
O=C1Nc2cccc3c2C1(CCCCN1CCC(c2c(-c4ccccc4)[nH]c4ccccc24)CC1)CCC3 (configuration not stated)	1200
COc1ccc(F)cc1-c1cccc(CNC2CCN(CC3Cn4c(=O)ccc5ccc(F)c3c54)CC2)c1 (configuration not stated)	830
COc1ccc2nc(C)cc(N/N=C/c3cccc([N+](=O)[O-])c3)c2c1	725
CN(C)[C@@H]1C(O)=C(C(N)=O)C(=O)[C@@]2(O)C(O)=C3C(=O)c4c(O)ccc(C#Cc5ccccn5)c4C[C@H]3C[C@@H]12	760
CC(C)N(Cc1cnc2nc(N)nc(N)c2n1)c1ccc(Cl)c(Cl)c1	158
Cc1cc(N2CCC(N(C)C)C2)nc(Nc2ccc(Cl)cc2)n1 (configuration not stated)	517
COc1cc(NC(=O)N2CCc3ccc(OCCC4CCCN4C)cc32)cc(C(F)(F)F)c1 (configuration not stated)	714
COc1ccc(-c2nnc(Sc3ccc(C#N)c([N+](=O)[O-])c3)n2CC(C)C)cc1	821
Cc1cc(CNCCCCCCNCc2ccc(Cl)cc2)ccc1O	823
COc1ccc2c(c1)CC(C)(C)NC2CCCCCCCCC1NC(C)(C)Cc2cc(OC)ccc21 (configuration not stated)	1300
CCNc1cc(C(=O)N[C@@H](Cc2ccccc2)[C@H](O)CNCCC(C)(C)C)c(F)c(N2CCCCS2(=O)=O)c1	797
COc1ccc(-c2csc3nc(C)nc(Cl)c23)cc1OC	357
O=S(=O)(NCCN1CCCC1)c1ccc(-c2cccc(CNC3Cc4ccccc4C3)c2)cc1	618
CC(Nc1nncc(-c2cccc(F)c2)n1)c1ccc(F)cc1 (configuration not stated)	791
Cc1ccc(F)cc1S(=O)(=O)Nc1cccc(CCN2CCC(N3CCCCC3)CC2)c1	1120
CC(C)NCc1cccc(-c2cccc(-c3nc4ccccc4[nH]3)c2)c1	799
CN1CCN(c2ccnc3ccc(NC(=O)Nc4cccc5c(C#N)cccc45)cc23)CC1	1050
Cc1cc(Nc2ccncc2)n2nc(C)c(-c3ccccc3Cl)c2n1	654

SMILES	XC50 [nM]
N=C(N)c1ccc(C=Cc2ccc(C(=N)N)cc2O)cc1	103
O=C(Nc1ccc(F)cc1F)NC1CCN(CCCCCNC(=O)C2CC2c2ccc(Cl)c(Cl)c2)CC1 (configuration not stated)	496
CN1CCC(O)(c2ccc(Br)cc2)C(C(O)c2ccc(Br)cc2)C1 (configuration not stated)	731
Cc1[nH]c2ccccc2c1CC1CCN(CC2CCN(C(=O)/C=C/c3ccc(Cl)c(Cl)c3)CC2)CC1	950
CCOc1cc(C)ccc1N1CCN(CCCCNC(=O)c2ccc(NC(=O)c3ccc(Cl)cc3)cc2)CC1	637
COc1ccc(C(C(=O)NC2CCN(C[C@H](O)c3ccnc4ccc(OC)cc34)CC2)N2CCN(c3ccc(Cl)c(Cl)c3)CC2)cc1 (some centres not stated)	204
CCCNC(=O)CN1CN(c2ccccc2)C2(CCN(C(=O)c3ccc(C(C)(C)C)cc3)CC2)C1=O	466
O=C(Nc1ccccc1Cl)N(Cc1cc(Cl)cc(Cl)c1)CC(O)COc1ccc(Cl)c(F)c1 (configuration not stated)	788
CC(C)c1ccc(Nc2nc(NCCc3c[nH]cn3)nc(NCc3ccccc3)n2)cc1	687
Cc1ccccc1CN1CCCN(Cc2ccc(C(=O)Nc3ccc(C(C)(C)C)cc3)cc2)CC1	863
Cc1ccccc1C1CCN(C2CCC(NC(=O)c3cc(-c4ccc(Cl)cc4)cs3)CC2)CC1 (configuration not stated)	158
N#Cc1cccc(C(=O)Nc2cccc(-c3ccc(C(=O)NCCCN4CCOCC4)cc3)c2)c1	749
O=C(Nc1ccc([N+](=O)[O-])cc1)c1nn(-c2ccccc2)cc1/N=C/c1cccc(O)c1	890
CS(=O)(=O)CCCNCc1ccc(-c2cc3c(Nc4ccc(OCc5ccccc5)cc4)ncnc3cn2)o1	650
CN(C)Cc1ccc(-c2cccc(Nc3nccc(NCC(O)c4ccccc4)n3)c2)cc1 (configuration not stated)	373
CN(Cc1ccc(C#N)cc1)C1CCN(c2cc(NC(=O)c3ccc(F)cc3)ccn2)CC1	1430
COc1cccc(CN2CCCC(CCC(=O)Nc3ccc(C(F)(F)F)cc3)C2)c1O (configuration not stated)	747
CC(CN(C)C)C(=O)Nc1cccc(-c2cccc(-c3nc4cc(F)ccc4[nH]3)c2)c1 (configuration not stated)	826
N#Cc1ccc(N[C@@H](CC2CCCCC2)C(=O)NCc2cc(Cl)cc(Cl)c2)c2ccccc12	1100
O=S(=O)(Nc1cccc(CCN2CCCCC2CCN2CCCC2)c1)c1ccc(-c2ccccc2)cc1 (configuration not stated)	1090
CC(C)Cc1cn(-c2nc(-c3nc4ccccc4[nH]3)cs2)c2ccncc12	90
CN1CCCC1CNS(=O)(=O)c1ccc(C(=O)NCC2CC2)cc1 (configuration not stated)	174
O=C(NC1CCC(N2CCC(Cc3ccc(F)cc3)CC2)CC1)c1cc2ccccc2[nH]1 (configuration not stated)	868
COc1ccc(OC)c(NC(=O)C2c3ccccc3C(=O)N(CC(C)C)C2c2cccs2)c1 (configuration not stated)	805
CC(C)(C(=O)NCCC1CCN(CCCCCNC(=O)/C=C/c2ccc(Cl)c(Cl)c2)CC1)c1ccc(Cl)cc1	1280

SMILES	XC50 [nM]
O=C(CNc1ccc(Cl)c(S(=O)(=O)N2CCCC2)c1)Nc1ccc(Br)cc1F	321
CC(C)(C)c1ccc(NC(=O)c2cccc(CN3CCCN(Cc4cccc(O)c4)CC3)c2)cc1	552
O=C(/C=C/c1ccc(Cl)c(Cl)c1)NCCCCCN1CCC(NC(=O)Nc2cccc(Cl)c2Cl)CC1	667
CCN(Cc1ccccc1)CC(O)c1ccc(Cl)c(Cl)c1 (configuration not stated)	182
Cc1cc(NC(=O)c2coc3cc(F)c(N4CC(C)N(C)C(C)C4)cc23)ccc1-n1ccnc1 (configuration not stated)	841
Nc1nc2ccc(S(=O)(=O)Nc3ccc(C(=O)N[C@@H](CCC(=O)O)C(=O)O)c(F)c3)cc2c(=O)[nH]1	824
O=C(Cc1ccccc1)NC(c1ccccc1)c1ccc2cccnc2c1O (configuration not stated)	952
COc1ccc2nccc(NC(=O)CNCc3ccc(-c4ccccc4)cc3)c2c1	769
O=[N+]([O-])c1cccc(-c2nc(-c3ccc(Br)cc3)[nH]c2-c2ccc(Br)cc2)c1	759
CCN1CCN(Cc2ccc3nc(-c4cc(C)n(Cc5cc(Cl)ccc5OCc5ccccc5)n4)[nH]c3c2)CC1	770
N=C(N)NCC=C(c1ccccc1)c1ccccc1	989
Fc1ccc2[nH]c(-c3cccc(-c4ccc(CNCc5ccccc5)cc4)c3)nc2c1	266
O=C(/C=C/c1ccc(Cl)c(Cl)c1)NCCCCCN1CCC(NC(=O)Nc2cccc(C(F)(F)F)c2)CC1	697
CC(C)NCc1ccc(-c2cccc(-c3nc4ccccc4[nH]3)c2)cc1	231
CC(C)COc1ccc(Cl)cc1Cc1nc(-c2nc3ccc(N4CCN(C)CC4)nc3[nH]2)cs1	751
CCN1CCN(c2cc(C)c3cc(NC(=O)c4cccc(OC)c4)ccc3n2)CC1	799
Nc1ncc(Cc2cc(Cl)c(N)c3ncccc23)c(N)n1	1120
Cc1cc(N(C)CCN(C)C)nc(Nc2ccc(Cl)cc2)n1	968
O=C(/C=C/c1ccc(Cl)c(Cl)c1)NCCCCCN1CCC(NC(=O)c2cccc(Cl)c2)CC1	687
OCc1c(Cl)cc(Cl)cc1CNCCCNc1nc2ccccc2[nH]1	745
CNCCNCc1cccc(-c2ccc(-c3nc4ccccc4[nH]3)s2)c1	830
O=C(Nc1ccc(F)c(Cl)c1)NC1CCN(c2ccnc3cc(Cl)ccc23)C1 (configuration not stated)	215
